Key:
[1] = biological target: T1, recombinant RACK1A protein (Oryza sativa subsp. japonica, UniProt Q6L4F8); test: Surface Plasmon Resonance (SPR) binding assay; set-up: species or system rice; conditions: immobilized recombinant RACK1A, KD50=kd/ka
T1 construct: His tag (C); made in house; host or cells: E. coli BL21(DE3)
Procedure: SD-29 (left panel) and SD-29-12 (right panel) were separately injected three times on the CM5 chip at 0, 1.56 μM, at 3.13 μM, 6.25 μM, 12.5 μM, 25 μM, 50 μM, and 100 μM (top sensor) concentrations (left panel) and at 3.13 μM, 6.25 μM, 12.5 μM, 25 μM, 50 μM, and 100 μM (top sensor) concentrations (right panel).
To obtain in vitro confirmation of the binding of the isolated compounds to the purified RACK1 protein, the small compound SD-29 and its structural analog SD29-12 were evaluated for their binding potential with the recombinant RACK1A proteins using the Surface Plasmon Resonance (SPR) chip. SPR experiments were carried out with a Biacore T200 equipped with a CM5 sensor chip. Briefly, recombinant RACK1A cysteine-tagged protein was immobilized on flow cell (FC) 2 in HEPES buffered saline (10 mM Hepes, pH 7.4, and 150 mM NaCl, 3 mM CaCl2)) using a thiol-coupling kit according to the manufacturer's protocol, resulting in immobilization levels of 4580 response units (RU). FC1 was only activated and inactivated and used as a reference. SD-29 stock solution was diluted to a final concentration of 100, 75, 50, 25, 10 μM and 1 μM injected in 10 mM Hepes, 150 mM NaCl, 3 mM CaCl2), 1% DMSO, and 0.5% P20. Each injection was repeated three times for 60 s. […] KD50 is calculated by the equation: KD50=kd/ka; kd—dissociation rate constant, ka—association rate constant. […]

RACK1A protein = test: RACK1 protein expression under salt stress, western blot; assay type: in vivo; conditions: Arabidopsis lysates
From the text: The abundant leaf protein Rubisco large subunit (RbcL) was used as a loading control for the blot. The 37 kD RACK1 band was absent from the genetic knockout of RACK1 plants (double mutant-rack1ab lane).
The reported positive expression of RACK1A protein under salt stress condition in Arabidopsis has led us to examine the RACK1A expression in the presence and absence of the inhibitor compounds during salt stresses. We determined that the RACK1A protein expression was specifically modulated by the inhibitor compounds when the lysates with salt or without salt in the presence and absence of the small compounds were probed with an antibody raised by using the full length RACK1A protein as antigen (Agrisera, Vännäs, Sweden, FIG. 2C). […] However, whether the effect of SD29-12 is Arabidopsis salt stress specific condition needs further experimental evidence. As the antibody cross-reacts with all three RACK1 isoforms in Arabidopsis, we used the double knockout (rack1ab) as a negative control on the blot (triple mutant is lethal at the early seedling stage). The large subunit of the abundant leaf protein rubisco (RbcL) was used as loading control for this blot. As the results support the in-silico based prediction, we set out to investigate the effect of the compounds on the mammalian RACK1 based virus proliferation.

HSV-1 ICP0 = test: Real-time RT-PCR of HSV-1 ICP0 transcript in HEp-2 cells; assay type: cell-based; conditions: 12 and 24 hpi, versus DMSO
From the text: The total transcript levels were quantified using actin expression as an internal control. The cDNA obtained immediately after the virus and drug transfection(s) was set as a baseline value. The normalized expression values were transformed to the log 10 value. The data plot represents mean t standard error calculated from three replicates.
Following instructions of the manufacturers, total RNA was isolated using Tri Reagent® (Ambion, Inc., Austin, Tex.). To quantitatively examine the mRNA level of HSV-1 ICP0 from the infected cells, real-time RT-PCR was undertaken using the QuantiTect SYBR Green RT-PCR kit (QIAGEN, Valencia, Calif.). […] Fluorescence (captured at 80° C.) was determined to be absent from the signal generated by primer dimers. Data were collected and recorded by the BIORAD CFX Manager software. The relative quantity of the ICP0 transcripts at the indicated time points was normalized to the relative quantity of the reference gene actin at the same time points and then the log10 copy number of the normalized RNA transcripts were calculated and presented on a bar chart. A melting temperature curve analysis was obtained by measuring (after the amplification cycles) the fluorescence during a period of warming from 60° C. to 95° C. […]

HSV-1 = test: Plaque formation unit (pfu) assay; assay type: cell-based
Procedure: The viral plaque assay was performed as previously described [Tang Q, Li L, Ishov A M, Revol V, Epstein A L, Maul G G. Determination of minimum herpes simplex virus type 1 components necessary to localize transcriptionally active DNA to ND10. J Virol. 2003; 77:5821-28.] with slight modifications. The HSV-1 strain 17 was diluted serially in a volume of 1 mL. Then 300 ul of the virus was added onto confluent HEp-2 cell monolayers in 12-well plates; each dilution had 3 wells. After adsorption for 2 h, the medium was removed and the cells were washed twice with serum-free DMEM and overlaid with phenol-free DMEM containing 5% FCS, 0.5% low-melting point agarose (GIBCO), and 1% penicillin-streptomycin. The cells were incubated at 37° C. for 48 hours. Neutral red was added on the agarose to stain the live cells. The plaques were counted and reported as pfu per mL. Mean pfu was determined after averaging the number of pfu from different dilutions. Student's t-tests were used to statistically analyze differences between the groups; a p-value lower than 0.005 was used as the threshold for a significant difference.
To assess the efficacy of SD-29 on the HSV-1 proliferation, a plaque assay was performed. We wanted to quantitatively assess whether SD-29 could inhibit viral replication. Because HSV-1 was able to enter cultured HEp-2 cells, we evaluated whether this entry led to productive virus replication.
In Table 1, confluent monolayers of HEp-2 cells were infected with serially diluted HSV-1 virus and were fixed and Giemsa stained at 0, 6, 12, and 24 hr post infection. The numbers of plaques were visualized. The number of plaques formed post infection decreased in the presence of SD-29 in a time-dependent manner.

HEp-2 cells = test: Trypan blue exclusion cell viability; assay type: cell-based; conditions: 24-hour treatment
Procedure: In order to assess whether the compounds are producing any toxicity that can led to the cell deaths, we evaluated the cell viability by the trypan blue exclusion method. As long-term inhibition of RACK1 expression has been reported to cell cycle arrest, we limited our experimental treatments to 24 h and evaluated the cell viability of almost full confluent cells after 24 h of compound treatment.
In table 2, the viability of cells was measured with Trypan blue exclusion assay in a Cellometer (Nexcelom, Lawrence, Mass.). The percentage survival of the compound treated cells was evaluated along with the DMSO treated cells. The values represent the mean±SE of three separate well based replicates.

HSV1-Luc (R8411) = test: HSV1-Luc bioluminescence luciferase assay in HEp-2 cells; assay type: cell-based, HSV-1; conditions: 10 μM
Procedure: (A) Hep-2 cells were incubated with the indicated compounds in the presence of HSV1-Luc virus at a concentration of 4×10^6 pfu/ml media. (B) Quantification of the luciferase signal from the samples in panel (A). Signals from three replicates from two separate experiments were combined to generate the average and the standard error bar.
(§1) To 80-90% confluent HEp-2 cells, HSV-1-Luc (R8411) are added at a concentration of 2×10e^6 pfu/ml along with indicated concentration of inhibitor compounds. After the described incubation period, luciferase activity is evaluated from bioluminescence images acquired by a Perkin Elmer IVIS Spectrum Imaging system immediately after adding luciferase substrate (D-luciferin, Gold Bio Technology) at a concentration of 400 μg/mL in medium. Bioluminescence intensity in different wells is quantified in units of photons per second per centimetre squared per steradian (p/s/cm^2/sr) by drawing a polygonal region of interest over the signals in images using Living Image 3.0 software (Caliper Life Sciences).
as §1, with “cells, HSV1-Luc” for “cells, HSV-1-Luc”, “(R8411) was” for “(R8411) are”, “activity was” for “activity is”, “wells was” for “wells is”, “per centimeter” for “per centimetre”
To visualize the effect of the drugs on the proliferation of HSV-1, a luciferase tagged HSV-1 F strain expressing luciferase (R8411 mutant) under the control of ICP27 promoter was obtained [Horsburgh B C, Hubinette M M, Tufaro F. Genetic manipulation of herpes simplex virus using bacterial artificial chromosomes. Methods Enzymol. 1999; 306:337-52]. […] The same samples after incubation of 48 h were used to assay for HSV-1 ICP0 and RACK1 protein expression (B of FIG. 5). Depletion of RACK1 by the compounds correlated with the depletion of the viral ICP0 protein confirming earlier results shown in B of FIG. 3.

T1 sequence (Q6L4F8 whole entry): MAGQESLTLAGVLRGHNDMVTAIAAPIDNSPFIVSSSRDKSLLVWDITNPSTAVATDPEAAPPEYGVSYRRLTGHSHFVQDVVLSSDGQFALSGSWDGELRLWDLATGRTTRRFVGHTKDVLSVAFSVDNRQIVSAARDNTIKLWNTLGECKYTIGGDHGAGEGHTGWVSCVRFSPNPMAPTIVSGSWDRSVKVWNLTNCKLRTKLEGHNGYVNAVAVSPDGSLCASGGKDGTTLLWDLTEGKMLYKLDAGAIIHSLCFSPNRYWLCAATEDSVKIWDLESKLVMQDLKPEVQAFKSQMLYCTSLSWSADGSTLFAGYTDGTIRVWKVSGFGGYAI

With `COc1ccc(-c2nnc(SCC(=O)O)n2N)cc1` [SD29-12] the Kd [1] was 58 µM, the “RACK1 protein expression under salt stress” value (RACK1A protein) was “not” and the “ICP0 mRNA level” value (HSV-1 ICP0) was “essentially showed the same level of ICP0 mRNA”. The Plaque formation unit (HSV-1; 0 hpi) was 0 ± 0 PFU/mL, the Plaque formation unit (HSV-1; 6 hpi) was 3.8 ± 0.07 × 10^2 PFU/mL and the Plaque formation unit (HSV-1; 12 hpi) was 3.6 ± 0.04 × 10^3 PFU/mL. For the same compound, the Plaque formation unit (HSV-1; 24 hpi) was 2.6 ± 0.03 × 10^6 PFU/mL, the “HEp-2 Cell viability, Mean” value (HEp-2 cells; 10 μM) was 92.7% and the “HEp-2 Cell viability, Mean” value (HEp-2 cells; 100 μM) was 97.7%.

With `Nc1nc2c(ncn2COCCO)c(=O)[nH]1` [acyclovir, reference compound] the HSV1-Luc proliferation (HSV1-Luc (R8411)) was “showed inhibition of the HSV1-Luc proliferation”.

Source: patent publication US11596623B2, “Methods for treating virus infection or proliferation” (HOWARD UNIVERSITY, priority 2018, dated 2023)
